Where a name gives a salt, the structure may show the parent alone. Read-outs that look alike come from different tables or passages of the source.
Experiments:
[1] = target: T1, human dopamine D4 receptor subtype (Homo sapiens, UniProt P21917); experiment: D4 receptor binding, [3H]YM-09151-2 displacement
T1 construct: expressed in transfected cells
T1 sequence (P21917 1-419): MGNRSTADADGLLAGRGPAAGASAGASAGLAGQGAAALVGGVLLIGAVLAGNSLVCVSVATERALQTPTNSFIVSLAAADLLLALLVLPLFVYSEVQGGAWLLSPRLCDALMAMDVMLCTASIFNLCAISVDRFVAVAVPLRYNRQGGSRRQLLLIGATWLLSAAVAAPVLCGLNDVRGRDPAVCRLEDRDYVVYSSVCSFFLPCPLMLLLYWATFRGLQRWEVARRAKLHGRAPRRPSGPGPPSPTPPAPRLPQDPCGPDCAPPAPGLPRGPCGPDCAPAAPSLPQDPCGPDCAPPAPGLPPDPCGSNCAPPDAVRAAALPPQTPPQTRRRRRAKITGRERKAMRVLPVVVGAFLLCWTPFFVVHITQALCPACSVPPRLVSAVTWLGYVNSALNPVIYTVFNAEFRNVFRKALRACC
Description: Assay for D4 receptor binding activity
Clonal cell lines expressing the human dopamine D4 receptor subtype were harvested in PBS and the cells centrifuged and the pellets stored at -80° C. until used in the binding assay. The pellets were resuspended and the cells lysed at 4° C. in 50 mM Tris pH 7.4 buffer containing 120 mM NaCl, 1 mM EDTA and 5 mM MgCl2. The homogenate is centrifuged at 48000× g for 10 minutes at 4° C. The resulting pellet is resuspended in fresh buffer and centrifuged again. After resuspension of the pellet in fresh buffer a […] aliquot is removed for protein determination. The remaining homogenate is centrifuged as above, the supernatant removed and the pellet stored at 4° C. until needed; at which time it is resuspended to a final concentration of […] with 50 mM Tris buffer (pH 7.4) and 120 mM NaCl just prior to use. Incubations were carried out for 60 minutes at 25° C. in the presence of 0.1 nM [^3 H] YM-09151-2. The incubation was terminated by rapid filtration through Whatman GF/C filters and rinsed with 2×4 ml washes of chiled 50 mM Tris (pH 7.4) and 120 mM NaCl. Non-specific binding was determined with 1 mM spiperone and radioactivity determined by counting in an LKB beta counter. Binding parameters were determined by non-linear least squares regression analysis, from which the inhibition constant Ki could be calculated for each test compound. The binding characteristics of some examples of this patent are shown in Table 2 for the dopamine D4 binding assay.

[2] = target: D2 receptor (Rattus norvegicus, UniProt P61169); experiment: biochemical; type: binding
Description: (§1) Assay for D2 and D3 receptor binding activity
(§2) Striatial tissue is dissected from adult male Sprague Dawley rats or BHK 293 cells are harvested containing recombinantly produced D2 or D3 receptors. The sample is homogenized in 100 volumes (w/vol) of 0.05 M Tris HCl buffer at 4° C. and pH 7.4. The sample is then centrifuged at 30,000× g and resuspended and rehomogenized. The sample is then centrifuged as described and the final tissue sample is frozen until use. The tissue is resuspended 1:20 (wt/vol) in 0.05 M Tris HCl buffer containing 100 mM NaCl.
(§3) Incubations are carried out at 48° C. and contain 0.5 ml of tissue sample, 0.5 nM ^3 H-raclopride and the compound of interest in a total incubation of 1.0 ml.

[3] = target: D3 receptor; experiment: D3 receptor binding, [3H]raclopride displacement; conditions: 0.5 nM 3H-raclopride; recombinantly produced D3 receptors, BHK 293 cells
Description: as §1, §2, §3

[4] = 0.1 nM [3H]YM-09151-2, 60 min, 25° C., clonal cell lines expressing human D4 (Table 2), read-out: Ki
[5] = 0.5 nM 3H-raclopride, rat striatal homogenates (Table 1), read-out: D2 binding IC50

D2 receptor, sequence (P61169 whole entry): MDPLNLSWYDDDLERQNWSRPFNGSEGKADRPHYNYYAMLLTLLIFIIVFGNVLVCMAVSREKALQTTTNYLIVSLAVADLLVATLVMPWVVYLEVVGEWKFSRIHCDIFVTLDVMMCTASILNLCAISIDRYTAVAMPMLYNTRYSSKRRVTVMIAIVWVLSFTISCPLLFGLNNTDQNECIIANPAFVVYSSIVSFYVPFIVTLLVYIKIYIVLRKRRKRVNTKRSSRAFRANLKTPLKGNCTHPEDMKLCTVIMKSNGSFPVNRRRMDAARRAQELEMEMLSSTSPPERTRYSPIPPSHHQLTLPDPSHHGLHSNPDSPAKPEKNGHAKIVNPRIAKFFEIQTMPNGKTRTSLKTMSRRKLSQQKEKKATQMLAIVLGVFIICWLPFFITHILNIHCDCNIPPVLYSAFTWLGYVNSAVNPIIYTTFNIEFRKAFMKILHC

Row | Ki [1, 4] [µM] | IC50 [2, 5] [µM] | IC50 [3] [µM] | Structure (SMILES) | Ki [1] [µM] | IC50 [2] [µM]
1 | 0.032 | 0.175 | – | COc1ccc(-c2ccccc2)cc1CN1CCN(c2ncccn2)CC1 [Compound 1, 4phenyl-2-[(4-(2-pyrimidinyl)-piperazinyl)methyl]-anisole dihydrochloride] | – | –
2 | 0.243 | – | – | COc1ccc(CN2CCN(c3ncccn3)CC2)cc1-c1ccccc1 [Compound 2, 2-phenyl-4-[(4-(2-pyrimidinyl)-piperazinyl)methyl]anisole dihydrochloride] | – | –
3 | 0.028 | 0.005 | 0.061 | c1ccc(-c2cccc(CN3CCC(c4ccccc4)CC3)c2)cc1 [Compound 4, 3-[(4phenyl-piperidin-1-yl)methyl]biphenyl hydrochloride] | – | –
4 | 1.05 | 1.94 | – | c1ccc(-c2cc(CN3CCN(c4ncccn4)CC3)cc(-c3ccccc3)c2)cc1 [Compound 8, 1-(2-pyrimidyl)-4-((3,5-diphenylphenyl)methyl)piperazine dihydrochloride] | – | –
5 | 0.056 | 0.29 | – | c1ccc(CC2CCN(Cc3ccnc(-c4ccccc4)c3)CC2)cc1 [Compound 9, 2-phenyl-4-[(4-benzyl-piperidin-1-yl)methyl]-pyridine dihydrochloride] | – | –

Further lines, the molecule ahead of its results:

Row | Structure (SMILES) | Ki [1, 4] [µM] | IC50 [2, 5] [µM] | IC50 [3] [µM] | Ki [1] [µM] | IC50 [2] [µM]
6 | C1=C(c2ccccc2)CCN(Cc2cccc(-c3ccccc3)c2)C1 [Compound 3, 3-[(4-1,2,3,6-tetrahydropyridin-1-yl)methyl]biphenyl hydrochloride] | – | – | 0.012 | 0.018 | 0.012
7 | Cc1cc(-c2ccccc2)ccc1CN1CCC(Cc2ccccc2)CC1 [Compound 5, 3-phenyl-6-[(4-benzyl-piperidin-1-yl)methyl]toluenehydrochloride] | 0.286 | – | 2.49 | – | –
8 | CC(c1cccc(-c2ccccc2)c1)N(C)Cc1ccccc1 (centres unmarked) [Compound 6, N-(1-(3-biphenyl)ethyl-N-methylbenzylamine hydrochloride] | > 0.075 | – | 6.12 | – | –
9 | COc1ccccc1N1CCN(C(C)c2cccc(-c3ccccc3)c2)CC1 (centres unmarked) [Compound 7, 1-(2-methoxyphenyl)-4-(1-(3-biphenyl)ethyl)piperazine dihydrochloride] | > 0.075 | – | 0.342 | – | –
10 | c1ccc(CC2CCN(Cc3cccc(-c4ccccc4)n3)CC2)cc1 [Compound 10, 2-Phenyl-6-[(4benzyl-piperidin-1-yl)methyl]-pyridine] | 0.769 | – | 1.14 | – | –
11 | c1ccc(CC2CCN(Cc3ccnc(-c4ccccc4)n3)CC2)cc1 [Compound 11, 2-phenyl-4-[(4-benzyl-piperidin-1-yl)methyl]-pyrimidine dihydrochloride] | 0.6 | – | 1.61 | – | –
